Literature values as cited in patent publication US20160213705A1, “METHOD TO TREAT ONYCHOMYCOSIS BY HYDROXYPROPYL CHITOSAN” (POLICHEM S.A., priority 2013, published 2016).
Several values for one entry are separate records, joined by “and”; a condition that tells them apart may be missing. Equal entries are not always repeated.

How the values were obtained:
[1] = test system: onychomycosis; conditions: topical; according to the different vehicles used
[2] = test system: onychomycosis; conditions: oral route

SMILES | cure rate [1] | complete cure, proportion of patients [2] [%]
Cc1cc(C2CCCCC2)n(O)c(=O)c1 [ciclopirox] | 12.7% and 5.8% | 
CN(C/C=C/C#CC(C)(C)C)Cc1cccc2ccccc12 [terbinafine] |  | 38
